From US10501516B2, “Peptide compound” (TAKEDA PHARMACEUTICAL COMPANY LIMITED, priority 2016, dated 2019)
Square brackets hold non-standard residues; d marks the D form. Side chains are listed from the residue outwards. Peptide text beside a SMILES is read from it. * marks the point of attachment. C18 diacid = O=C(O)CCCCCCCCCCCCCCCCC(=O)*; NMeY = CN[C@@H](Cc1ccc(O)cc1)C(=O)O; Palmitoyl = CCCCCCCCCCCCCCCC(=O)*; αMeF = C[C@](N)(Cc1ccccc1)C(=O)O; Iva = CC[C@](C)(N)C(=O)O; Aib = CC(C)(N)C(=O)O

Legend:
human GIPR = target: T1, human GIPR (Homo sapiens, UniProt P48546); test: Reporter assay of human GIPR gene (agonist activity, intracellular cAMP as index); assay type: cell-based; conditions: Cre-luc reporter, hGIPR/CHO-K1 cells, 4 hours
T1 construct: expressed in transfected cells; host or cells: CHO-K1 Cre-luc reporter cells (hGIPR/CHO-K1, also called hGIPR/CRE-LUC/CHO-K1)
T1 sequence (P48546 22-466): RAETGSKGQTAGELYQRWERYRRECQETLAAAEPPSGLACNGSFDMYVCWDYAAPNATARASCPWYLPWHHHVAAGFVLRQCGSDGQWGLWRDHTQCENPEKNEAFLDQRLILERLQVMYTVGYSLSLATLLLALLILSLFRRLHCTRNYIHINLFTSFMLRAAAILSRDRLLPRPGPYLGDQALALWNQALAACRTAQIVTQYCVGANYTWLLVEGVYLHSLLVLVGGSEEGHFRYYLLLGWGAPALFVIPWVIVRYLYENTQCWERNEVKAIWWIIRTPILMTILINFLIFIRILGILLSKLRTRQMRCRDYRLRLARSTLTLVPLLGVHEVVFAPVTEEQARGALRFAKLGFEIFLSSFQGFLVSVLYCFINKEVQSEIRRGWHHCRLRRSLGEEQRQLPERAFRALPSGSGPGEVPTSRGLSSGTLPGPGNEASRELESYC
Text: (§1) Evaluation of Agonist Activity Against Human NPY2R, Human GIPR, and Human GLP-1R Using Change in Intracellular cAMP Concentration as Index
The human GIPR gene having a sequence identical to the sequence of GenBank Accession No. U39231 was cloned into pMSRα-neo vector to prepare hGIPR/pMSRα-neo. This vector was introduced to the Cre-luc reporter cells obtained in (1) to obtain transformants. Next, a cell line induced to express luciferase, i.e., hGIPR/CHO-K1 cells, were selected from the obtained transformants by the addition of GIP.
The hGIPR/CRE-LUC/CHO-K1 cells or the hGLP-1R/Crel cells were inoculated at a cell density of 25 μL/well (5,000 cells/well) to a 384-well white plate (Corning, 3570), and cultured overnight in Ham F12 medium containing 10% fetal bovine serum, 100 U/mL penicillin and 100 μg/mL streptomycin in a CO2 incubator of 37° C. On the next day, a medium containing a test compound was added at a concentration of 5 μL/well to the cells, and the resultant cells were incubated for 4 hours in a CO2 incubator of 37° C. to give the final concentration of 1 μM. SteadyGlo (Promega) was added thereto at a concentration of 30 μL/well, and the mixture was shaken with light shielded. After 30 minutes, the luciferase activity was measured using a plate reader Envision (PerkinElmer). For the GIPR agonist activity, the luciferase activity in the presence of 10 μM GIP was defined as 100%, and the luciferase activity from the addition of DMSO instead of the test compound was defined as 0%. The GIPR agonist activity was calculated with a rise in intracellular cAMP concentration as an index.

human NPY2R = target: T2, human NPY2R (Homo sapiens, UniProt P49146); test: Reporter assay of human NPY2R gene (agonist activity, decrease in intracellular cAMP as index); assay type: cell-based; conditions: Cre-luc reporter, hNPY2R CHO-K1 cells, forskolin 1.2 μM, 4 hours; read-out: Agonist activity (EC50) hY2R
T2 construct: expressed in transfected cells; host or cells: CHO-K1 Cre-luc reporter cells (pAKKO1114/hNPY2R#481 No. 88 cells)
T2 sequence (P49146 1-381): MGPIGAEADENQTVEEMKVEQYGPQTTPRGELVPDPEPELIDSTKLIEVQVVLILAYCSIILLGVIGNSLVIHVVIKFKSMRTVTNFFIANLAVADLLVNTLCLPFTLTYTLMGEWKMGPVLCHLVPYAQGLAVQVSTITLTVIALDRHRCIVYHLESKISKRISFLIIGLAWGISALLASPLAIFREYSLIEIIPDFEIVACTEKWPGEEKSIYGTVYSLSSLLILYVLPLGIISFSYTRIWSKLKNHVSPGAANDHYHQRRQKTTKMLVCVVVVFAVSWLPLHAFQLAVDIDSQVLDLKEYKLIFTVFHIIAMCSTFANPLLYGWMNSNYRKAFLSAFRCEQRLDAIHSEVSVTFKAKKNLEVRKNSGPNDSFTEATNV
Text: as §1
The human NPY2R gene having a sequence identical to the sequence of GenBank Accession No. AC104407 was cloned into pAKKO1114 vector to prepare hNPY2R/pAKKO1114. Next, pGL4.29 (Promega) was introduced to CHO-K1 cells, which were then screened with hygromycin to construct Cre-luc reporter cells. These cells were cotransfected with hNPY2R/pAKKO1114 and pcDNA3.1 (Life Technologies Corp.), and the cells were screened with geneticin. Next, a cell line induced to express luciferase, i.e., pAKKO1114/hNPY2R#481 No. 88 cells, were selected from the obtained transformants by the addition of human PYY (3-36).
The pAKKO1114/hNPY2R#481 No. 88 cells were inoculated at a cell density of 25 μL/well (5,000 cells/well) to a 384-well white plate (Corning, 3570), and cultured overnight in Ham F12 medium containing 10% fetal bovine serum, 100 U/mL penicillin and 100 μg/mL streptomycin in a CO2 incubator of 37° C. On the next day, the medium was removed, and an assay medium (Ham F12 medium containing 0.1% BSA, 100 U/mL penicillin and 100 μg/mL streptomycin) containing forskolin (final concentration: 1.2 μM) was added at a concentration of 25 μL/well to the cells. Next, an assay medium containing a test compound was added at a concentration of 5 μL/well to the cells, and the resultant cells were incubated for 4 hours in a CO2 incubator of 37° C. to give the final concentration of 1 μM. SteadyGlo (Promega) was added thereto at a concentration of 30 μL/well, and the mixture was left standing for 20 minutes with light shielded. The luciferase activity was measured using a plate reader Envision (PerkinElmer). The luciferase activity from the addition of DMSO was defined as 100%, and the luciferase activity from the addition of 1 μM human PYY(3-36) instead of the test compound was defined as 0%. The NPY2R agonist activity was calculated with a decrease in intracellular cAMP concentration as an index.

male C57BL/6J mouse = test: Evaluation of feeding suppressive action in mice; assay type: in vivo; conditions: 30 nmol/kg s.c. once a day for 3 days; 3-days cumulative food consumption vs solvent control
In short: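 Male C57BL/6J mice, 8-9 weeks, ad libitum fed, given compound (30 or 100 nmol/2 mL in 10% DMSO saline) s.c. at 2 mL/kg once daily for 3 days. Cumulative 3-day food consumption measured by weighing; suppression rate (%) calculated relative to vehicle controls.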

| EC50 (human GIPR) [nM] | EC50 (human NPY2R) [nM] | Structure (SMILES) | Rate of feeding suppression (%) (male C57BL/6J mouse) |
| --- | --- | --- | --- |
| 0.068 | 0.1 | CCCCCCCCCCCCCCCC(=O)NCC(=O)NCC(=O)NCC(=O)NCC(=O)NCCCC[C@H](NC(=O)[C@H](CC(=O)O)NC(=O)[C@H](CO)NC(=O)[C@@H](NC(=O)[C@](C)(Cc1ccccc1)NC(=O)[C@@H](NC(=O)CNC(=O)[C@H](CCC(=O)O)NC(=O)C(C)(C)NC(=O)[C@@H](N)Cc1ccc(O)cc1)[C@@H](C)O)[C@@H](C)O)C(=O)NC(C)(C)C(=O)N[C@H](C(=O)NC(C)(C)C(=O)N[C@@H](CC(C)C)C(=O)N[C@@H](CC(=O)O)C(=O)N[C@@H](CCCCN)C(=O)N[C@@H](CCC(N)=O)C(=O)N[C@@H](CCCNC(=N)N)C(=O)N[C@@H](CCC(N)=O)C(=O)N[C@@](C)(CC)C(=O)N[C@@H](CCC(=O)O)C(=O)N[C@@H](Cc1ccccc1)C(=O)N[C@H](C(=O)N[C@@H](CCCNC(=N)N)C(=O)N[C@@H](Cc1c[nH]cn1)C(=O)N[C@@H](CC(C)C)C(=O)N[C@@H](CC(C)C)C(=O)N[C@@H](CC(N)=O)C(=O)N[C@@H](CCCCN)C(=O)NC(C)(C)C(=O)N[C@H](C(=O)N[C@@H](CCCNC(=N)N)C(=O)N[C@@H](CCC(N)=O)C(=O)N[C@@H](CCCNC(=N)N)C(=O)N[C@@H](Cc1ccc(O)cc1)C(N)=O)[C@@H](C)O)C(C)C)[C@@H](C)CC [Example 7] (H-Y[Aib]EGT[αMeF]TSDK([Gly-Gly-Gly-Gly-Palmitoyl])[Aib]I[Aib]LDKQRQ[Iva]EFVRHLLNK[Aib]TRQRY-NH2) | −37.6 |
| 0.068 | 0.1 | CCCCCCCCCCCCCCCC(=O)NCC(=O)NCC(=O)NCC(=O)NCC(=O)NCCCC[C@H](NC(=O)[C@H](CC(=O)O)NC(=O)[C@H](CO)NC(=O)[C@@H](NC(=O)[C@](C)(Cc1ccccc1)NC(=O)[C@@H](NC(=O)CNC(=O)[C@H](CCC(=O)O)NC(=O)C(C)(C)NC(=O)[C@H](Cc1ccc(O)cc1)NC)[C@@H](C)O)[C@@H](C)O)C(=O)NC(C)(C)C(=O)N[C@H](C(=O)NC(C)(C)C(=O)N[C@@H](CC(C)C)C(=O)N[C@@H](CC(=O)O)C(=O)N[C@@H](CCCCN)C(=O)N[C@@H](CCC(N)=O)C(=O)N[C@@H](CCCNC(=N)N)C(=O)N[C@@H](CCC(N)=O)C(=O)N[C@@](C)(CC)C(=O)N[C@@H](CCC(=O)O)C(=O)N[C@@H](Cc1ccccc1)C(=O)N[C@H](C(=O)N[C@@H](CCCNC(=N)N)C(=O)N[C@@H](Cc1c[nH]cn1)C(=O)N[C@@H](CC(C)C)C(=O)N[C@@H](CC(C)C)C(=O)N[C@@H](CC(N)=O)C(=O)N[C@@H](CCCCN)C(=O)NC(C)(C)C(=O)N[C@H](C(=O)N[C@@H](CCCNC(=N)N)C(=O)N[C@@H](CCC(N)=O)C(=O)N[C@@H](CCCNC(=N)N)C(=O)N[C@@H](Cc1ccc(O)cc1)C(N)=O)[C@@H](C)O)C(C)C)[C@@H](C)CC [Example 9] (H-[NMeY][Aib]EGT[αMeF]TSDK([Gly-Gly-Gly-Gly-Palmitoyl])[Aib]I[Aib]LDKQRQ[Iva]EFVRHLLNK[Aib]TRQRY-NH2) | – |
| 0.074 | 0.1 | CCCCCCCCCCCCCCCC(=O)NCC(=O)NCC(=O)NCC(=O)NCC(=O)NCCCC[C@H](NC(=O)[C@H](CC(=O)O)NC(=O)[C@H](CO)NC(=O)[C@@H](NC(=O)[C@](C)(Cc1ccccc1)NC(=O)[C@@H](NC(=O)CNC(=O)[C@H](CCC(=O)O)NC(=O)C(C)(C)NC(=O)[C@H](Cc1ccc(O)cc1)NC)[C@@H](C)O)[C@@H](C)O)C(=O)N[C@@H](C)C(=O)N[C@H](C(=O)NC(C)(C)C(=O)N[C@@H](CC(C)C)C(=O)N[C@@H](CC(=O)O)C(=O)N[C@@H](CCCCN)C(=O)N[C@@H](CCC(N)=O)C(=O)N[C@@H](CCCNC(=N)N)C(=O)N[C@@H](CCC(N)=O)C(=O)N[C@@](C)(CC)C(=O)N[C@@H](CCC(=O)O)C(=O)N[C@@H](Cc1ccccc1)C(=O)N[C@H](C(=O)N[C@@H](CCCNC(=N)N)C(=O)N[C@@H](Cc1c[nH]cn1)C(=O)N[C@@H](CC(C)C)C(=O)N[C@@H](CC(C)C)C(=O)N[C@@H](CC(N)=O)C(=O)N[C@@H](CCCCN)C(=O)NC(C)(C)C(=O)N[C@H](C(=O)N[C@@H](CCCNC(=N)N)C(=O)N[C@@H](CCC(N)=O)C(=O)N[C@@H](CCCNC(=N)N)C(=O)N[C@@H](Cc1ccc(O)cc1)C(N)=O)[C@@H](C)O)C(C)C)[C@@H](C)CC [Example 13] (H-[NMeY][Aib]EGT[αMeF]TSDK([Gly-Gly-Gly-Gly-Palmitoyl])AI[Aib]LDKQRQ[Iva]EFVRHLLNK[Aib]TRQRY-NH2) | −41.0 |
| 0.074 | 2.4 | CC[C@H](C)[C@H](NC(=O)C(C)(C)NC(=O)[C@H](CCCCNC(=O)CNC(=O)CNC(=O)CNC(=O)CNC(=O)CCCCCCCCCCCCCCCCC(=O)O)NC(=O)[C@H](CC(=O)O)NC(=O)[C@H](CO)NC(=O)[C@@H](NC(=O)[C@](C)(Cc1ccccc1)NC(=O)[C@@H](NC(=O)CNC(=O)[C@H](CCC(=O)O)NC(=O)C(C)(C)NC(=O)[C@@H](N)Cc1ccc(O)cc1)[C@@H](C)O)[C@@H](C)O)C(=O)NC(C)(C)C(=O)N[C@@H](CC(C)C)C(=O)N[C@@H](CC(=O)O)C(=O)N[C@@H](CCCCN)C(=O)N[C@@H](CCC(N)=O)C(=O)N[C@@H](C)C(=O)N[C@@H](CCC(N)=O)C(=O)N[C@@](C)(CC)C(=O)N[C@@H](CCC(=O)O)C(=O)N[C@@H](Cc1ccccc1)C(=O)N[C@H](C(=O)N[C@@H](CCCNC(=N)N)C(=O)N[C@@H](Cc1c[nH]cn1)C(=O)N[C@@H](CC(C)C)C(=O)N[C@@H](CC(C)C)C(=O)N[C@@H](CC(N)=O)C(=O)N[C@@H](CCCCN)C(=O)NC(C)(C)C(=O)N[C@H](C(=O)N[C@@H](CCCNC(=N)N)C(=O)N[C@@H](CCC(N)=O)C(=O)N[C@@H](CCCNC(=N)N)C(=O)N[C@@H](Cc1ccc(O)cc1)C(N)=O)[C@@H](C)O)C(C)C [Example 28] (H-Y[Aib]EGT[αMeF]TSDK([Gly-Gly-Gly-Gly-C18 diacid])[Aib]I[Aib]LDKQAQ[Iva]EFVRHLLNK[Aib]TRQRY-NH2) | – |
